Among the test systems are MDA-MB-231; OVCAR-4; NCI-H226; HCT-116; ACHN; U-251; OVCAR-3; COLO 205; EKVX; UO-31; SR; HOP-92; SNB-19; KM12; RPMI-8226; HCC 2998; NCI/ADR-RES; NCI-H522; CCRF-CEM; MCF7.
What all share (test): inhibition of tumour cell growth, NCI panel, 48 h

The structures appear in SMILES notation.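 Method: 48-hour compound exposure of cells in 96-well plates, five concentrations, linear interpolation of endpoints. Here, GI50 denotes the concentration required for 50% inhibition of growth.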 Calls of active or inactive are those of the source. No stated cut-off is given here; in the data, active = GI50 up to about 1.1 µM and inactive = higher.

As for `COc1cc2c(c(OC)c1OC)-c1ccc(SC)c(=O)cc1C(NC(=O)c1ccccc1)CC2` (stereo not given), the GI50 in the assay on MDA-MB-231 is < 0.01 µM (active); in the assay with OVCAR-4, 1.45 µM (inactive); in the assay with NCI-H226 it was 0.0465 µM (active); with HCT-116 it was < 0.01 µM (active); in the assay on ACHN it was < 0.01 µM (active); with U-251, < 0.01 µM (active). Besides, the GI50 with OVCAR-3 is < 0.01 µM (active); in the assay with COLO 205 it was < 0.01 µM (active); in the assay with EKVX, 21.2 µM (inactive); in the assay with UO-31, 0.272 µM (active); with SR it was < 0.0137 µM (active); in the assay on HOP-92 it was 0.0119 µM (active). For the same molecule, the GI50 with SNB-19 is < 0.01 µM (active); in the assay on KM12, < 0.01 µM (active); with RPMI-8226, < 0.01 µM (active); in the assay on HCC 2998, < 0.01 µM (active); in the assay on NCI/ADR-RES, 0.0103 µM (active); in the assay with NCI-H522, < 0.01 µM (active). Besides, the GI50 in the assay with CCRF-CEM and in the assay with MCF7 was < 0.01 µM (active) throughout.

As for `CC(C)=C1CCC(CN2CCOCC2)C1=O` (stereo not given), the GI50 with MDA-MB-231 is 17.4 µM (inactive); in the assay on OVCAR-4 it was 8.18 µM (inactive); in the assay with NCI-H226 it was 21.2 µM (inactive); with HCT-116, 4.43 µM (inactive); in the assay with ACHN, 9.84 µM (inactive); with U-251, 32.1 µM (inactive). Also, the GI50 is 8.18 µM (inactive) with OVCAR-3; 4.66 µM (inactive) in the assay with COLO 205; 17.7 µM (inactive) with EKVX; 18.1 µM (inactive) in the assay with UO-31; 3.57 µM (inactive) with SR; 3.95 µM (inactive) with HOP-92. Moreover, the GI50 in the assay with SNB-19 was 60.5 µM (inactive); in the assay on KM12, 29.4 µM (inactive); in the assay on RPMI-8226, 0.953 µM (active); in the assay on HCC 2998, 15.4 µM (inactive); in the assay on NCI/ADR-RES, 13.3 µM (inactive); with NCI-H522, 0.0454 µM (active). The GI50 was 2.49 µM (inactive) in the assay with CCRF-CEM and 4.14 µM (inactive) in the assay with MCF7.

On to `O=C(NCCc1ccccn1)c1ccc2cc(C(=O)N3CC(CCl)c4ccc([N+](=O)[O-])cc43)[nH]c2c1` (stereo not given), for which the GI50 in the assay on MDA-MB-231 is > 33.1 µM (inactive); with OVCAR-4 it was 4.31 µM (inactive); in the assay on NCI-H226, > 58.9 µM (inactive); in the assay with HCT-116, > 70.3 µM (inactive); in the assay on ACHN it was 36.6 µM (inactive); in the assay with U-251, 18.5 µM (inactive). The GI50 in the assay with OVCAR-3 is 5.52 µM (inactive); with COLO 205 it was > 100 µM (inactive); with EKVX, 47.4 µM (inactive); in the assay on UO-31, > 49.8 µM (inactive); with SR, > 100 µM (inactive); in the assay with HOP-92, 9.46 µM (inactive). The GI50 is 12.1 µM (inactive) in the assay with SNB-19; > 100 µM (inactive) in the assay with KM12; > 100 µM (inactive) in the assay with RPMI-8226; 61.5 µM (inactive) in the assay with HCC 2998; 26.1 µM (inactive) in the assay on NCI/ADR-RES; 9.82 µM (inactive) in the assay on NCI-H522. For the same molecule, the GI50 is > 100 µM (inactive) in the assay on CCRF-CEM and > 67.9 µM (inactive) with MCF7.

For the molecule `CC(=O)Nc1ccc(NCC(=O)Nn2cnc3ccc(S(=O)(=O)Nc4ccc(NC(C)=O)cc4)cc3c2=O)cc1`, the GI50 in the assay on MDA-MB-231, in the assay with OVCAR-4, in the assay with NCI-H226, in the assay with HCT-116, with ACHN and in the assay with U-251 was > 100 µM (inactive) throughout. Besides, the GI50 in the assay with OVCAR-3, in the assay with COLO 205, in the assay with EKVX, in the assay with UO-31, with SR and with HOP-92 was > 100 µM (inactive) in each case. For the same molecule, the GI50 in the assay with SNB-19, in the assay on KM12, with RPMI-8226, with HCC 2998, in the assay with NCI/ADR-RES and in the assay on NCI-H522 was > 100 µM (inactive) each time. The GI50 in the assay on CCRF-CEM and in the assay with MCF7 was > 100 µM (inactive) throughout.

Turning to `CCc1ccc2oc(=O)ccc2c1`, the GI50 in the assay with MDA-MB-231 is > 10 µM (inactive); with OVCAR-4, > 100 µM (inactive); in the assay with NCI-H226 it was > 100 µM (inactive); in the assay with HCT-116, > 100 µM (inactive); in the assay on ACHN it was > 100 µM (inactive); in the assay with U-251, > 100 µM (inactive). The GI50 in the assay on OVCAR-3 is > 100 µM (inactive); with COLO 205, > 100 µM (inactive); with EKVX, 32.2 µM (inactive); in the assay on UO-31, 31.4 µM (inactive); in the assay on SR, > 100 µM (inactive); in the assay with HOP-92 it was > 100 µM (inactive). The GI50 in the assay on SNB-19 is > 100 µM (inactive); in the assay on KM12 it was > 100 µM (inactive); in the assay with RPMI-8226 it was 91 µM (inactive); in the assay on HCC 2998, > 100 µM (inactive); in the assay with NCI/ADR-RES, > 100 µM (inactive); with NCI-H522, > 100 µM (inactive). Further, the GI50 with CCRF-CEM and in the assay with MCF7 was > 100 µM (inactive) in each case.

For the molecule `CC(C)=CCCC(C)C1=C(O)C(=O)C(C)=CC1=O` (stereo not given), the GI50 with MDA-MB-231 is 2.98 µM (inactive); in the assay with OVCAR-4, 6.41 µM (inactive); in the assay on NCI-H226, 20.8 µM (inactive); in the assay with HCT-116, 4.71 µM (inactive); with ACHN it was 1.88 µM (inactive); in the assay on U-251, 22.9 µM (inactive). The GI50 with OVCAR-3 is 7.53 µM (inactive); with COLO 205, 5.75 µM (inactive); in the assay with EKVX, 5.94 µM (inactive); in the assay with UO-31, 7.82 µM (inactive); in the assay on SR it was 1.29 µM (inactive); with HOP-92, 1.73 µM (inactive). The GI50 was 38.1 µM (inactive) in the assay with SNB-19; 18.3 µM (inactive) with KM12; 0.838 µM (active) with RPMI-8226; 12.8 µM (inactive) in the assay with HCC 2998; 12.2 µM (inactive) in the assay on NCI/ADR-RES; 2.1 µM (inactive) in the assay with NCI-H522. Further, the GI50 in the assay on CCRF-CEM was 0.614 µM (active); in the assay with MCF7, 5.74 µM (inactive).

On to `CC(=O)Nc1cc2nc3n(c2cc1C)CCC3OC(C)=O` (stereo not given), for which the GI50 in the assay on MDA-MB-231, with OVCAR-4, in the assay on NCI-H226, in the assay on HCT-116, in the assay on ACHN and in the assay with U-251 was > 100 µM (inactive) throughout. Further, the GI50 in the assay on OVCAR-3, in the assay with COLO 205, with EKVX, with UO-31, with SR and in the assay with HOP-92 was > 100 µM (inactive) each time. The GI50 in the assay with SNB-19, in the assay on KM12, in the assay with RPMI-8226, in the assay on HCC 2998, in the assay on NCI/ADR-RES and in the assay with NCI-H522 was > 100 µM (inactive) throughout. The GI50 in the assay on CCRF-CEM and in the assay on MCF7 was > 100 µM (inactive) in each case.

In the case of `O=[N+]([O-])c1cc(-c2nc(-c3ccccc3)c(-c3ccccc3)[nH]2)c(O)c([N+](=O)[O-])c1`, the GI50 with MDA-MB-231 was 22.4 µM (inactive); in the assay with OVCAR-4 it was 34 µM (inactive); in the assay with NCI-H226, 20.1 µM (inactive); in the assay on HCT-116, 17.7 µM (inactive); in the assay on ACHN it was 21.6 µM (inactive); in the assay with U-251, 14.8 µM (inactive). Also, the GI50 in the assay with OVCAR-3 was 33 µM (inactive); in the assay on COLO 205, 21.8 µM (inactive); in the assay with EKVX, 23.4 µM (inactive); with UO-31, 18.2 µM (inactive); with SR it was 20.8 µM (inactive); in the assay with HOP-92, 19.8 µM (inactive). Besides, the GI50 in the assay on SNB-19 was 36.9 µM (inactive); in the assay with KM12, 24.9 µM (inactive); in the assay with RPMI-8226, 27 µM (inactive); in the assay on HCC 2998, 16.6 µM (inactive); in the assay on NCI/ADR-RES it was 19.1 µM (inactive); with NCI-H522 it was 20.2 µM (inactive). The GI50 was 25.9 µM (inactive) in the assay with CCRF-CEM and 24.7 µM (inactive) in the assay with MCF7.

`O=C(N/N=C/c1ccc2c(c1)CCC2)c1ccccc1O`: the GI50 with MDA-MB-231 was 19.5 µM (inactive); in the assay with OVCAR-4, 24.8 µM (inactive); in the assay with NCI-H226, 32.1 µM (inactive); in the assay on HCT-116 it was 19.4 µM (inactive); in the assay on ACHN, 18.6 µM (inactive); in the assay on U-251, 17.7 µM (inactive). Further, the GI50 is 16.8 µM (inactive) in the assay on OVCAR-3; 53.7 µM (inactive) with COLO 205; 27.1 µM (inactive) in the assay on EKVX; 29 µM (inactive) with UO-31; 30.9 µM (inactive) with SR; 24.5 µM (inactive) in the assay with HOP-92. The GI50 was 19.8 µM (inactive) in the assay with SNB-19; 20.9 µM (inactive) in the assay on KM12; 32.5 µM (inactive) in the assay with RPMI-8226; 13.3 µM (inactive) in the assay with HCC 2998; 24.4 µM (inactive) in the assay on NCI/ADR-RES; 21.5 µM (inactive) with NCI-H522. Also, the GI50 in the assay with CCRF-CEM was 8.71 µM (inactive); in the assay with MCF7, 16.2 µM (inactive).

`C=CCN(CCNS(=O)(=O)c1ccc(C)cc1)S(=O)(=O)c1ccc(C)cc1`: the GI50 with MDA-MB-231 was > 100 µM (inactive); in the assay with OVCAR-4, 12.2 µM (inactive); with NCI-H226, > 71.3 µM (inactive); with HCT-116 it was 34.2 µM (inactive); with ACHN, 13.6 µM (inactive); in the assay with U-251 it was > 49.5 µM (inactive). Also, the GI50 is 19 µM (inactive) in the assay with OVCAR-3; > 44.5 µM (inactive) in the assay with COLO 205; 31.9 µM (inactive) in the assay on EKVX; > 50.2 µM (inactive) in the assay on UO-31; > 100 µM (inactive) in the assay with SR; > 69.3 µM (inactive) in the assay on HOP-92. Besides, the GI50 with SNB-19 was > 76.6 µM (inactive); in the assay on KM12, 57.8 µM (inactive); in the assay with RPMI-8226, 24.6 µM (inactive); in the assay on HCC 2998 it was > 69.5 µM (inactive); in the assay with NCI/ADR-RES, > 60.5 µM (inactive); with NCI-H522, 12.9 µM (inactive). In addition, the GI50 in the assay on CCRF-CEM was > 55 µM (inactive); with MCF7, > 51.9 µM (inactive).

The values above are taken from ChEMBL document CHEMBL1201862, “PubChem BioAssay data set” (2004).
